# Test results taken from PubChem BioAssay (NCI).
#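 Tested at 5 concentrations; 48 h exposure; 96-well plates; endpoints linearly interpolated, else capped at highest concentration. The concentration for 50% growth inhibition is given as GI50. TGI is the concentration that stops growth completely.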
# System: A498 renal
# Assay: DTP human tumour cell line panel, 48 h
Structure (SMILES),TGI [µM],GI50 [µM]
CSC[C@H](NC(=O)COc1cccc2cnccc12)C(=O)NC(Cc1ccccc1)C(O)C(=O)N1CSC[C@H]1C(=O)NC(C)(C)C (stereo not given in full),> 100,–
Cc1nc2c(N)ncnc2o1,> 100,–
CCN(Cc1c(F)cccc1OC)c1ccc(CO)c(Cl)c1,0.106,0.0325
O=[N+]([O-])c1cccnc1N=Nc1c(O)[nH]c2ccccc12,> 100,–
O=C1C=C(Nc2ccc(Cl)cc2C(=O)c2ccccc2)c2ccccc2C1=O,> 100,–
CCN(CCNS(C)(=O)=O)c1ccc(N)c(C)c1,55.2,12.6
O=C(c1ccc([N+](=O)[O-])cc1[N+](=O)[O-])N(/N=C/C=C/c1ccccc1)c1nnc(-c2ccccc2)c(-c2ccccc2)n1,95.2,–
COc1ccc(NC(=O)CSc2nnc(-c3ccc(NC(C)=O)cc3)o2)cc1,30.2,–
CC(=O)N/C(=C\c1ccccc1/C=C(\NC(C)=O)c1nc2cc(C)c(C)cc2[nH]1)c1nc2cc(C)c(C)cc2[nH]1,> 100,–
NNc1ncnc2nc[nH]c12,> 100,5.41
NCCCn1c2c(c3ccc([N+](=O)[O-])cc3c1=O)C(=O)c1cc(I)ccc1-2,7.72,3.02
CN(Cc1cnc2nc(N)nc(N)c2n1)c1ccc(C(=O)N[C@@H](CCS(=O)(=O)O)C(=O)O)cc1,> 100,–

# System: OVCAR-5 ovarian
# Assay: DTP human tumour cell line panel, 48 h
Structure (SMILES),GI50 [µM],TGI [µM]
Nc1c(C(=O)Nc2ccccn2)sc2nc3c(cc12)C(=O)CCC3,9.53,> 100
COc1ccc(Cl)cc1NC(=O)c1ccc(NC2=C(Cl)C(=O)N(Cc3ccccc3)C2=O)cc1,> 100,> 100
Cc1cccc(NC2=C(Cl)C(=O)c3nc(C)ccc3C2=O)c1,1.82,3.61
O=Cc1cc2c(cc1-c1cc3c(cc1C=O)OCO3)OCO2,–,> 100
C/C(=N\NC(N)=O)c1sc(-c2nc(C)c(/C(C)=N/NC(N)=O)s2)nc1C,–,> 100
CN(C)CCNC(=O)Cc1ccccc1Nc1c(Cl)cccc1Cl,–,24.2
COc1cc2c(cc1OCCCN1CCN(CCCOc3cc4c(cc3OC)C(=O)N3CC(F)(F)C[C@H]3C=N4)CC1)N=C[C@@H]1CC(F)(F)CN1C2=O,3.83,11.4
C[N+](C)(C)CC(=O)N/N=C(/Cc1cc(=O)oc2cc(O)ccc12)C(=O)Nc1ccc(Cl)cc1,–,> 100
COc1cccc2c1O/C(=C\c1ccc([N+](=O)[O-])s1)C2=O,> 100,> 100
FC(F)(F)c1ccc2nc(NCc3ccccc3)c(-c3ccccc3)nc2c1,–,> 100
COc1cc(C[P+](c2ccccc2)(c2ccccc2)c2ccccc2)cc(OC)c1OC,–,> 100
C=C(C)[C@@H]1CC[C@]2(CN)CC[C@]3(C)[C@H](CC[C@@H]4[C@@]5(C)CCCNC(C)(C)[C@@H]5CC[C@]43C)[C@@H]12,1.59,3.11
CCCN(CCC)c1c([N+](=O)[O-])cc(C(=O)N(CC)CC)cc1[N+](=O)[O-],–,94.3
C=C(CN(C)Cc1ccccc1)c1ccc(NC(=O)c2ccc(C(=C)CN(C)Cc3ccccc3)cc2)cc1,> 100,> 100
COC(=N)c1csc(C2OC(CO)C(O)C2O)n1 (stereo not given),–,> 100
CN1Nc2ccccc2CC1=O,–,> 100
O=C(CNc1ccc(Cl)cc1Cl)Nn1c(-c2ccccc2)nc2ccccc2c1=O,–,37.5

Structure (SMILES),GI50 [µM],TGI [µM]
CO[C@@H]1CC[C@]2(C)OC[C@H](C)[C@@H]3C[C@@H](C)[C@@H](OC(C)=O)[C@@H]4[C@H]3[C@@H]2O[C@H]4C[C@@]1(C)O,> 100,> 100
Oc1oc(C(=C2N=c3ccccc3=N2)c2ccc(Cl)cc2)c(O)c1-c1ccc(Cl)cc1,–,6.89
CSC[C@H](NC(=O)COc1cccc2cnccc12)C(=O)NC(Cc1ccccc1)C(O)C(=O)N1CSC[C@H]1C(=O)NC(C)(C)C (stereo not given in full),–,> 100
Cc1nc2c(N)ncnc2o1,–,> 100
CCN(Cc1c(F)cccc1OC)c1ccc(CO)c(Cl)c1,0.0371,0.242
CCOC(=O)c1c(C)c2c(n1Cc1ccccc1)CSCC2=O,20.9,89.1
CCCCCCCCCCCC[N+]12CC[N+](CCN)(CC1)CC2,–,38.1
C[C@H](CCOc1cccc(CC(=O)O)c1)N(Cc1cccc(C(F)(F)F)c1Cl)CC(c1ccccc1)c1ccccc1,13.4,28.1
O=[N+]([O-])c1cccnc1N=Nc1c(O)[nH]c2ccccc12,–,49.2
O=C1C=C(Nc2ccc(Cl)cc2C(=O)c2ccccc2)c2ccccc2C1=O,–,> 100
O=C1C=C(c2c(O)ccc3ccccc23)c2cc(O)ccc2C1=O,–,35.5
CCN(CCNS(C)(=O)=O)c1ccc(N)c(C)c1,13.6,28.2
O=C(c1ccc([N+](=O)[O-])cc1[N+](=O)[O-])N(/N=C/C=C/c1ccccc1)c1nnc(-c2ccccc2)c(-c2ccccc2)n1,–,> 100
COc1ccc(NC(=O)CSc2nnc(-c3ccc(NC(C)=O)cc3)o2)cc1,–,> 100
CC(=O)N/C(=C\c1ccccc1/C=C(\NC(C)=O)c1nc2cc(C)c(C)cc2[nH]1)c1nc2cc(C)c(C)cc2[nH]1,–,94.6
NNc1ncnc2nc[nH]c12,3.18,> 40.4
NCCCn1c2c(c3ccc([N+](=O)[O-])cc3c1=O)C(=O)c1cc(I)ccc1-2,0.556,1.95

# System: M14 melanoma
# Assay: DTP human tumour cell line panel, 48 h
Structure (SMILES),GI50 [µM],TGI [µM]
Nc1c(C(=O)Nc2ccccn2)sc2nc3c(cc12)C(=O)CCC3,0.483,> 100
COc1ccc(Cl)cc1NC(=O)c1ccc(NC2=C(Cl)C(=O)N(Cc3ccccc3)C2=O)cc1,> 100,> 100
Cc1cccc(NC2=C(Cl)C(=O)c3nc(C)ccc3C2=O)c1,1.32,2.72
O=Cc1cc2c(cc1-c1cc3c(cc1C=O)OCO3)OCO2,–,> 100
C/C(=N\NC(N)=O)c1sc(-c2nc(C)c(/C(C)=N/NC(N)=O)s2)nc1C,–,> 100
CN(C)CCNC(=O)Cc1ccccc1Nc1c(Cl)cccc1Cl,–,33.9
COc1cc2c(cc1OCCCN1CCN(CCCOc3cc4c(cc3OC)C(=O)N3CC(F)(F)C[C@H]3C=N4)CC1)N=C[C@@H]1CC(F)(F)CN1C2=O,3.25,16.5
C[N+](C)(C)CC(=O)N/N=C(/Cc1cc(=O)oc2cc(O)ccc12)C(=O)Nc1ccc(Cl)cc1,–,> 100
COc1cccc2c1O/C(=C\c1ccc([N+](=O)[O-])s1)C2=O,3.06,> 100
COc1cc(C[P+](c2ccccc2)(c2ccccc2)c2ccccc2)cc(OC)c1OC,–,> 100
C=C(C)[C@@H]1CC[C@]2(CN)CC[C@]3(C)[C@H](CC[C@@H]4[C@@]5(C)CCCNC(C)(C)[C@@H]5CC[C@]43C)[C@@H]12,1.69,3.18
CCCN(CCC)c1c([N+](=O)[O-])cc(C(=O)N(CC)CC)cc1[N+](=O)[O-],–,79.5
C=C(CN(C)Cc1ccccc1)c1ccc(NC(=O)c2ccc(C(=C)CN(C)Cc3ccccc3)cc2)cc1,> 100,> 100
COC(=N)c1csc(C2OC(CO)C(O)C2O)n1 (stereo not given),–,> 100
CN1Nc2ccccc2CC1=O,–,> 100
O=C(CNc1ccc(Cl)cc1Cl)Nn1c(-c2ccccc2)nc2ccccc2c1=O,–,30.8
Oc1oc(C(=C2N=c3ccccc3=N2)c2ccc(Cl)cc2)c(O)c1-c1ccc(Cl)cc1,–,18

Structure (SMILES),GI50 [µM],TGI [µM]
CSC[C@H](NC(=O)COc1cccc2cnccc12)C(=O)NC(Cc1ccccc1)C(O)C(=O)N1CSC[C@H]1C(=O)NC(C)(C)C (stereo not given in full),–,> 100
Cc1nc2c(N)ncnc2o1,–,> 100
CCN(Cc1c(F)cccc1OC)c1ccc(CO)c(Cl)c1,19.7,47.8
CCOC(=O)c1c(C)c2c(n1Cc1ccccc1)CSCC2=O,20,56.3
CCCCCCCCCCCC[N+]12CC[N+](CCN)(CC1)CC2,–,> 100
C[C@H](CCOc1cccc(CC(=O)O)c1)N(Cc1cccc(C(F)(F)F)c1Cl)CC(c1ccccc1)c1ccccc1,7.23,24.2
O=[N+]([O-])c1cccnc1N=Nc1c(O)[nH]c2ccccc12,–,58.1
O=C1C=C(Nc2ccc(Cl)cc2C(=O)c2ccccc2)c2ccccc2C1=O,–,> 100
O=C1C=C(c2c(O)ccc3ccccc23)c2cc(O)ccc2C1=O,–,29.9
CCN(CCNS(C)(=O)=O)c1ccc(N)c(C)c1,10.9,26.4
O=C(c1ccc([N+](=O)[O-])cc1[N+](=O)[O-])N(/N=C/C=C/c1ccccc1)c1nnc(-c2ccccc2)c(-c2ccccc2)n1,–,> 100
COc1ccc(NC(=O)CSc2nnc(-c3ccc(NC(C)=O)cc3)o2)cc1,–,33.8
CC(=O)N/C(=C\c1ccccc1/C=C(\NC(C)=O)c1nc2cc(C)c(C)cc2[nH]1)c1nc2cc(C)c(C)cc2[nH]1,–,23.9
NNc1ncnc2nc[nH]c12,2.76,> 100
NCCCn1c2c(c3ccc([N+](=O)[O-])cc3c1=O)C(=O)c1cc(I)ccc1-2,0.0315,1.32
CN(Cc1cnc2nc(N)nc(N)c2n1)c1ccc(C(=O)N[C@@H](CCS(=O)(=O)O)C(=O)O)cc1,–,> 100
